Measured values taken from ChEMBL document CHEMBL3507680, “University of Dundee, Gates Library screen for HepG2 cell viability”.

Assay: Human HepG2 cell viability assay in 384 well format
Type: toxicity, cell-based
Parameters: dose 125 nL, time 70.5 hour; cytotoxicity at 70.5 h: concentration not given beside the values
Conditions: HepG2 cells, read-out: Inhibition

SMILES	cytotoxicity at 70.5 h [%]
Cc1cccc(NC(=O)N2CCN(Cc3noc(C4CC4)n3)CC2)c1	2.6
CCOC[C@@H]1CCC[C@@]12CN(Cc1nccs1)CCO2	0.476
c1ccc(OCc2n[nH]c3c2CN(CC2CC2)C3)nc1	-2.5
Cc1cnn(CC(=O)N2CCC3(CCC(=O)N(CC(C)O)C3)CC2)c1 (centres undefined)	-5.26
O=C(Cc1ccc(F)cc1)NCCNc1cc(N2CCCC2)ncn1	22.2
CCCc1nnc(N2CCCC(c3nnc(Cn4ccnc4)n3C)C2)s1 (centres undefined)	-2.6
CO[C@@H]1CO[C@@]2(CCCN(Cc3nc(C)cs3)C2)C1	-1.7
CS(=O)(=O)N1C[C@@H]2CC[C@H](C1)N(C/C=C/c1ccc(F)cc1)C2	-4.45
CCN(CCCNc1ncnc2cc(F)c(F)cc12)S(C)(=O)=O	-1.36
NCC1Cc2cc(-c3nccc(N4CCC(O)CC4)n3)cc(F)c2O1 (centres undefined)	6.33
Cc1cc(CN(C)C(=O)NC2CCC(O)CC2)no1 (centres undefined)	-7.4
Cc1nc(CNc2cccc(Cl)c2Cl)cs1	16.5
COC(=O)c1ccc(/C=C/c2ncc(C(=O)O)s2)cc1	3.38
O=C(O)c1cc(N2C[C@H](NC(=O)C3CCOCC3)[C@@H](C3CC3)C2)ccn1	-11.7
C1CC(CN2CCc3c(nnn3CC3CC3)C2COCC2CC2)C1 (centres undefined)	-8.97
CNC(=O)[C@@H]1C[C@@H](N)CN1Cc1cc2cc(C)cc(C)c2[nH]c1=O	-12
CCn1cc(CN2CCCN(C(=O)c3c(C)oc(C)c3C)CC2)cn1	-12.8
COCCC(=O)N1CCC2(CCN(Cc3ccc(OC)c(F)c3)C2)C1 (centres undefined)	-93.9
COc1cc(Br)cc(CNC2CCCNC2=O)c1O (centres undefined)	2.96
c1csc(CN2CCCN(c3ccc(Cn4ccnc4)cn3)CC2)c1	-5.7
COc1cc(N2CC[C@@H]3OCCN(C)[C@H]3CC2)ncn1	-5.78
COCc1ccc(C(=O)N2CCc3c(ncnc3N3CCOCC3)C2)o1	-4.54
CN(Cc1cncnc1)[C@@H]1CN(C(=O)c2ccco2)[C@@H]2CCCO[C@H]12	-3.82

SMILES	cytotoxicity at 70.5 h [%]
CN1C(=O)CC(c2ccccc2)C12CCN(C(=O)c1ccc[nH]1)CC2 (centres undefined)	-4.56
CC(C)N(Cc1cccc(F)c1)Cc1nc2c(cnn2C)c(=O)[nH]1	0.718
Cc1cc(F)c(C(C(=O)O)N2CCN(Cc3ccccn3)CC2)cc1Cl (centres undefined)	-6.6
CCc1ccc(CNC(=O)N2CCN(Cc3cc(C)no3)CC2)s1	19.6
O=C(O)CN1CCC(c2ccccc2)CC1	-3.19
Cn1ncc2c(NCCOc3ccc(F)cc3)nc(C3CCCC3)nc21	0.952
CNC(=O)C1Cn2ccnc2C2(CCN(C(=O)CC3CCCC3)CC2)O1 (centres undefined)	-1.06
O=C(CS(=O)(=O)c1ncccc1Cl)NC1CCCc2ccccc21 (centres undefined)	12
CN1CC(Nc2ccc(Br)cc2C#N)CCC1=O (centres undefined)	-0.708
CCS(=O)(=O)NC(CCSC)C(=O)Nc1ccc(F)cc1 (centres undefined)	-85.2
COc1ccc(-n2ccc(C(=O)N3CCC(C(N)=O)C3)n2)cc1 (centres undefined)	23.5
CCN(CC)Cc1nnc2sc(C(C)Oc3ccccc3)nn12 (centres undefined)	4.82
COCCOC(=O)N1CCC(c2nccn2CC2CC2)CC1	-4.36
CC(C)Oc1ccccc1C(=O)NC1CC(=O)N(CC(F)(F)F)C1 (centres undefined)	-22.6
CSc1ccccc1C(C(=O)O)N(C)CC1CCOCC1 (centres undefined)	3.4
O=C(Cc1cccc(F)c1)NCCNc1ncccn1	-4.32
Cc1nn(-c2ccccc2Cl)c(C)c1CCC(=O)O	4.21
Cc1noc([C@]23COC[C@H]2CN(C(=O)N2CCCC2)C3)n1	-6.89
Cc1csc(Nc2cc(C3CN(c4ccncn4)C3)nc(C)n2)n1	-8.67
CCOC(=O)N1CCN(c2nc(C)ncc2CC)CC1	1.02
COCC(O)CN1CCC(NC(=O)c2ccccc2Cl)CC1 (centres undefined)	-0.503
O=C(NCCn1cccc1)C1CCN(C2CCCCC2)CC1	-13.6
COc1cccc(CNC(=O)CCOc2ccccc2C)c1	-10.3

SMILES	cytotoxicity at 70.5 h [%]
COc1ccnc(CNc2nc(C)nc(C)c2C)c1	3
Cn1ncc2c1NC(=O)CC2c1ccc(Cl)cc1Cl (centres undefined)	-15
CSc1ccc(-c2nc(CN3CCC(CN)C3)c(C)o2)cc1 (centres undefined)	-3.18
COc1ccc(C(CNC(=O)c2c(C)noc2C)N(C)C)cc1 (centres undefined)	21.1
CC(C)N1CCC(CC(=O)N2CCN(Cc3nccn3C)CC2)CC1	-6.78
Cc1cc(NC(=O)CN2CCn3c(nnc3C3CC3)C2)on1	-2.62
CC(CCc1ccccc1)NC(=O)CNCCCN(C)C (centres undefined)	-3.07
Cc1ccc(NC2CCN(C(=O)Cc3cccc(F)c3)CC2)nn1	-4.83
O=C(O)[C@@H]1CN(C(=O)CCC(F)(F)F)C[C@H]1c1ccncc1	-1.6
Cc1ccc(CN2CCc3c(nc4cc(C5CC5)nn4c3O)C2)s1	18.3
CCC(C)Sc1nncn1-c1ccc(OC)nc1 (centres undefined)	5.95
COc1cccc(NC(=O)c2nc3ccccc3n(C)c2=O)c1	-6.23
CC1(C(=O)NCCCOc2ccccc2F)CC(=O)N2C=CC=CC2=N1 (centres undefined)	0.00385
CC(NCC(=O)N1CCc2sccc2C1)c1ccccc1F (centres undefined)	-15.8
c1ccc(OC2COC3(CCN(Cc4ccccn4)CC3)C2)cc1 (centres undefined)	25.2
CC(C)N(C)S(=O)(=O)N(Cc1cccs1)Cc1cccs1	-12.9
O=C(O)C1(Cc2cccc(-c3ccc(F)cc3)c2)CCOCC1	9.21
Cc1ccoc1C(=O)N1C[C@@H](N2CCN(C)CC2)[C@H]2OCCC[C@H]21	-4.64
O=C(c1ccoc1)N1CCO[C@@H]2CNC[C@@H]21	-1.42
NC(=O)CCn1ccc(NCc2cc(F)ccc2Br)n1	-10.5
Cc1nc2c(c(N3C[C@@H](C)[C@@](C)(O)C3)n1)CCC2	22.5
CC(C)c1nnc2n1CCN(C(=O)c1ccc(Cn3cccc3)cc1)C2	-7.11
CCC[C@H]1CN(Cc2ccc(N(C)C)nc2)C[C@@H]1NC(=O)CO	-6.62

SMILES	cytotoxicity at 70.5 h [%]
Cc1nc2c(c(C)c1CC(=O)Nc1ccnn1C(C)C)c(=O)[nH]n2C	2.43
O=C(C[C@@H]1COC[C@H]2CN(C3CCC3)C[C@@H]12)NCc1cccnc1	-16.6
COc1cccc(F)c1C(C)NC(=O)NCc1cnc(C)s1 (centres undefined)	-1.56
Cc1nc2ccn(C(C)C)c(=O)c2cc1C(=O)O	-24.7
O=C(NC1CCCC1)c1ccnc(C2CCNCC2)c1	-1.39
CCN(CC)S(=O)(=O)N(Cc1cccc(C)c1)Cc1ccccn1	19.3
Cc1csc(N2CCN(CC(=O)NCc3ccccn3)CC2C)n1 (centres undefined)	-13.9
CCc1cnc(NCc2nc(COC)no2)nc1	-11.1
Cc1nc(C(Cc2ccsc2)NC(=O)CN2CCOCC2)sc1C (centres undefined)	-4.95
CCc1ccc(C(=O)O)cc1S(=O)(=O)N(C)c1cccc(C)c1	-7.54
CC(C)(CNC(=O)Nc1ccc(S(=O)(=O)C(F)F)cc1)N1CCOCC1	-7.87
O=C(c1cncc(Br)c1)N1CCCc2ccc(F)cc21	-5.54
c1ccc(C(CC2CN(Cc3ncc[nH]3)CCO2)c2ccccc2)cc1 (centres undefined)	0.214
CC(C)N(C)Cc1cc(=O)n2c(n1)CN(C(=O)c1ccc[nH]1)CCC2	0.329
COc1cccc(CN(C)C(=O)NCc2c(C)cc(C)[nH]c2=O)c1	-4.51
CCSc1nsc(NC(=O)COc2ccc3c(c2)OCO3)n1	-8.05
CN(C)Cc1nn(C)c2c1CN(C(=O)c1ccc[nH]1)C2	-0.767
Cn1c(=O)oc2cc(S(=O)(=O)N3CCC(c4ccccc4)C3)c(Cl)cc21 (centres undefined)	25
CN(CC1CCOC1)c1ncc(Br)cn1 (centres undefined)	-3.89
O=C(CC1CC1)N[C@@H]1CN(C(=O)c2cccs2)C[C@@H]2CCCO[C@@H]21	-7.28
CN(C)CC(O)Cn1cc(NCc2ccc(Br)cc2)cn1 (centres undefined)	-2.01
CC1(C)CC(CN2CCC3(CCC(=O)N(CCO)C3)CC2)CCO1 (centres undefined)	-10.6
CC(=O)Nc1ccn(Cc2ccccc2)n1	-12.2

SMILES	cytotoxicity at 70.5 h [%]
C1CN(CCN2CCOCC2)CCN1	-0.136
CC(=O)N1CCN(Cc2ccc(C)o2)CC2(CC(=O)N(C)C2)C1 (centres undefined)	-4.13
CC(C)(C)OC(=O)Cn1cccc(S(=O)(=O)N2CCCCCC2)c1=O	-12.4
CC(N)Cc1ccccc1Sc1ccccc1 (centres undefined)	-1.45
Cc1ccc(-n2nnc(C(=O)NCC3CCCCC3)n2)cc1	-7.05
Cc1c(C(=O)O)sc2nc(Cc3ccccc3)nc(N)c12	-3.73
CC(C)C(=O)N1CCCC1c1nc(N(C)C)ncc1-c1ccc(Cl)cc1 (centres undefined)	6.28
Cc1cc(C)n(CC2CN(CCOc3ccccc3F)CCO2)n1 (centres undefined)	-2.73
Cc1ccc(C(C(=O)O)N(C)CCCN2CCOCC2)c(C)c1 (centres undefined)	-8.61
COc1ccc(NC(=O)CN2CCCCC2C2OCCO2)cc1 (centres undefined)	-4.96
OCCn1nnnc1Cc1ccc(Br)cc1	-6.7
O=C(C1CCCC1)N1CC2(CCN(C3COC3)CC2)Cc2ccccc21	-21
O=C(O)C(c1ccc2c(c1)OCCO2)N1CCC(N2CCOCC2)CC1 (centres undefined)	0.0244
CC(C)CNC(=O)c1cc(C2CC2)nc2c1c(C1CCCN1)nn2C (centres undefined)	13.8
O=C(O)c1nnn(Cc2ccc(F)cc2)c1-c1cccnc1	-10.1
Cn1cc(CN2C[C@@H](NC(=O)c3cscn3)[C@H]3OCCC[C@H]32)cn1	-8.57
Cc1cc(NC(C)c2csc(C)n2)n2nc(C)c(C)c2n1 (centres undefined)	5.97
Cc1ccc(NC2CCN(C(=O)CCCc3ccccn3)CC2)cc1	-8.59
Cn1cc(C(=O)N2CCSc3ccccc32)ccc1=O	3.72
CCCS(=O)(=O)N1CCOC2(CCCN(Cc3ccccn3)C2)C1 (centres undefined)	-2.44
CC(C)NC(=O)N1CC(=O)c2sc(Nc3ccc(C#N)cc3)nc2C1	-7.13
O=C(Nc1ccc(-c2ccn[nH]2)cc1)C1CCCN(Cc2ccoc2)C1 (centres undefined)	1.09
